Here are results for one compound from article PMC7140522, “The Pyrazolo[3,4-d]pyrimidine Derivative, SCO-201, Reverses Multidrug Resistance Mediated by ABCG2/BCRP” (Cells, 2020).

One may read the IC50 as the concentration that gives 50% inhibition.

Read-outs that look alike come from different tables or passages of the source.

One data set addresses T1, ABCG2 (BCRP) (Homo sapiens, UniProt Q9UNQ0).
T1 construct: expressed in transfected cells; host or cells: MDCK-II (canine kidney)
Nature of the data set: Hoechst 33342 accumulation assay in MDCK-II-BCRP cells. Type of data set: cell-based. As to conditions: MDCK cells overexpressing BCRP, steady-state fluorescence.

The target of the next data set is T2, ABCG2 (Homo sapiens, UniProt Q9UNQ0).
T2 construct: expressed in transfected cells; host or cells: MDCK-II (canine kidney)
As to the kind of experiment: Pheophorbide A accumulation assay in MDCK cells. As to conditions: flow cytometry. Type of data set: cell-based. (In general: Flow cytometry measures light scatter and fluorescence of single cells or particles in a stream.)

The next data set addresses T3, BCRP (Homo sapiens, UniProt Q9UNQ0).
T3 sequence (Q9UNQ0 1-655): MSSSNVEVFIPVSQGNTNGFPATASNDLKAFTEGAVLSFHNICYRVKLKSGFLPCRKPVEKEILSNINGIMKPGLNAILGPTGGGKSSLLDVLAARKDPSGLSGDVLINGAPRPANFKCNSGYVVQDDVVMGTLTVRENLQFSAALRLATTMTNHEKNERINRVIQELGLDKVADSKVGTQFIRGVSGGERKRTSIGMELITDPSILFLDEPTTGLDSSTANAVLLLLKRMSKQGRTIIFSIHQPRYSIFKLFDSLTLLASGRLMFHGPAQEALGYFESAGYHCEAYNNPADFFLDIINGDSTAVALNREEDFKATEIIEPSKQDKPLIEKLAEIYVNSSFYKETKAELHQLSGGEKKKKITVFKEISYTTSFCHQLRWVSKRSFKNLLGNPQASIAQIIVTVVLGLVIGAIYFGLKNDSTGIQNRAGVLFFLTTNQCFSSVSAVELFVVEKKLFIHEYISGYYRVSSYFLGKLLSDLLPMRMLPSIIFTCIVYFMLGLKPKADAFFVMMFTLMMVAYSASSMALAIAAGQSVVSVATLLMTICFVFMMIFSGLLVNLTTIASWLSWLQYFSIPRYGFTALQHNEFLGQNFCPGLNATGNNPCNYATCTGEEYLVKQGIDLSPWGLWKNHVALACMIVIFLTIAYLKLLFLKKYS
Nature of the data set: Fluorometric transporter inhibition, BCRP-CHO. The data set is classed as in vitro ADME. To be noted: Hoechst 33342 substrate. The method, then: Cells were seeded in a 96-well plate (20,000 cells/well) and used on days 2 or 3 post-seeding. […] Subsequently, substrate was added to the plate followed by 20 min incubation at 37 °C. The plate was then washed with cold assay buffer followed by fluorescence reading on a plate reader. The tested transporters, cell lines, substrates, and reference inhibitors are shown in the Supplementary Materials (Tables S1 and S2).
110 Table S1. […]
120 transporters (P-gp and BCRP), increased fluorescence signal represents inhibition of the transporter activity.
The IC50 values are shown for the analysed transporters with […]

Another data set addresses CYP2C9 (Homo sapiens, UniProt P11712). As to the kind of experiment: CYP inhibition, CYP2C9. To be noted: Human liver microsomes, diclofenac substrate. Type of data set: in vitro ADME. (In general: Liver microsomes are vesicles of endoplasmic reticulum, rich in cytochrome P450 enzymes.)
For data set [1], the system named is CYP2B6. Nature of the data set: CYP induction in human hepatocytes, CYP2B6 mRNA. Type of data set: in vitro ADME. To be noted: plated human hepatocytes.
For data set [2], the system named is CYP2B6. Nature of the data set: CYP induction in human hepatocytes, CYP2B6 enzyme activity. Type of data set: in vitro ADME.
Details of data set [3]: method as in PMID 26260222. As to conditions: cited from earlier work.

Chain of CYP2C9 (P11712 whole entry): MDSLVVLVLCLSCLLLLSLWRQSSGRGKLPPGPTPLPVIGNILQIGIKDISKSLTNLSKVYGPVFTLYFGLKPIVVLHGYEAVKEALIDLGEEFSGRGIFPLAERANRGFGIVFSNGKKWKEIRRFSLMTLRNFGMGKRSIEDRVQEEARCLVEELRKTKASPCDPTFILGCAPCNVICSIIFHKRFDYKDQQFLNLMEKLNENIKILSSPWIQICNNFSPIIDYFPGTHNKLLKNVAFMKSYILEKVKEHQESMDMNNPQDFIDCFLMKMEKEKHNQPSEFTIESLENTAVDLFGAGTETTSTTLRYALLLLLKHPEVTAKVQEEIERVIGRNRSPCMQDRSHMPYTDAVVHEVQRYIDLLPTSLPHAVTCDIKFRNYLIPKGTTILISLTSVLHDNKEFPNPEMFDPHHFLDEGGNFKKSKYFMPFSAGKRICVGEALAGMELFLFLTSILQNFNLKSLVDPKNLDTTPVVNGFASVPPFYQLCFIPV
Protocol for ABCG2 (BCRP): Dose–response curves were fitted by nonlinear regression using the four-parameter or three-parameter logistic equation, whichever was statistically preferred (GraphPad Prism, version 6.0, San Diego, CA, USA).
46 72 hours with the indicated concentrations of drugs.
49 example is shown. Error bars indicate standard deviations.
57 was used as a comparator.
58 tested and fluorescence values in the steady state measured for each concentration. The IC50-values
A representative experiment is depicted.

Regarding `Nc1nc(-c2ccccc2)nc2[nH]nc(Nc3ccc(C(F)(F)F)cc3)c12` [SCO-201], the IC50 is 175 nM against ABCG2 (BCRP), 145 nM against ABCG2, 1700 nM at BCRP and over 100000 nM at CYP2C9. In addition, the fold induction at 2 days was determined as 0.17 with CYP2B6 [1] (Donor 1, read-out: Mean Fold Induction of mRNA at 1× 10^−4 M); 0.52 with CYP2B6 [1] (Donor 2, read-out: Mean Fold Induction of mRNA at 1× 10^−4 M); 0.45 in the data set on CYP2B6 [1] (Donor 3, read-out: Mean Fold Induction of mRNA at 1× 10^−4 M). For the same compound, the “Mean Fold Enzyme Activity Induction at 1 × 10^−4 M” value turned out to be 0.8 with CYP2B6 [2] (Donor 1), 0.9 with CYP2B6 [2] (Donor 2) and 0.6 in the data set with CYP2B6 [2] (Donor 3). In data set [3], the stability in serum entry is listed as “stable in serum”.
